biological target: T1, CCR3 receptor (UniProt P51677); assay: CCR3 Receptor Binding Assay ([125I]-labeled human eotaxin/CCL11 displacement on cells); conditions: 0.1 nM [125I]-labeled human eotaxin/CCL11, 60 min at room temperature
T1 sequence (P51677 1-355): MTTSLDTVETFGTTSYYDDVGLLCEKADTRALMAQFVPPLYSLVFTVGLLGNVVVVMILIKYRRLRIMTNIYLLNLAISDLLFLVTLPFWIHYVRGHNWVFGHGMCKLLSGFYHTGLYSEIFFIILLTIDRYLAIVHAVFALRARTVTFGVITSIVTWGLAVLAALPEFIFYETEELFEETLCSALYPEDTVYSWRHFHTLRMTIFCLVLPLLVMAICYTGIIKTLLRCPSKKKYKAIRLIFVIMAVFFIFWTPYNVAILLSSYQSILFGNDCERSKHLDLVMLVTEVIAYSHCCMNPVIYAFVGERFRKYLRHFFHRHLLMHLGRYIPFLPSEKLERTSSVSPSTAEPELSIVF
Method: Cells were washed once with PBS and resuspended in a binding buffer (25 mM HEPES pH 7.6, 5 mM MgCl2, 1 mM CaCl2, 0.5% BSA, 0.1% NaN3). […] of cell suspension (2×10^5 cells/well) and 0.1 nM [^125I]-labeled human eotaxin/CCL11 (2000 Ci/mmol specific activity) were mixed in a 96-well U-bottom polypropylene plate, and incubated for 60 min at room temperature for the binding reaction. The cell suspension was then transferred to a filtration plate (#MAFB, Millipore), and washed 3 times with the binding buffer containing 0.5 M NaCl, scintillant added, and the radioactivity was counted on a TopCount (Packard). For the determination of non-specific binding, the cell suspension and [^125I]-labeled human eotaxin/CCL11 were incubated in the presence of 500 nM of unlabeled human eotaxin/CCL11. See, lino et al., “Molecular cloning and functional characterization of cynomolgus monkey (Macaca fascicularis) CC chemokine receptor, CCR3,” Cytokine 2002, 19, 276-286.
The biological results are summarized in Table 1, wherein A represents a value no greater than 50 nM, and B represents a value greater than 50 nM but no greater than 500 nM, C represents a value greater than 500 nM but no greater than 5 μM; and D represents a value greater than 5 μM.

| Ki [µM] | Structure (SMILES) |
| --- | --- |
| ≤ 0.05 | N#Cc1ccc(Oc2cc(Cl)cc(Cl)c2)c(S(=O)(=O)N2CCC(NC(=O)NCCN3CCOCC3)CC2)c1 [Compound 22, 1-(1-(5-cyano-2-(3,5-dichlorophenoxy)phenylsulfonyl)piperidin-4-yl)-3-(2-morpholinoethyl)urea] |
| 0.5 to 5 | Cc1cc(C)cc(Sc2ccc(C#N)cc2S(=O)(=O)NC2CCN(C(=O)OC(C)(C)C)CC2)c1 [Compound 23] |
| > 5 | Cc1ccc(S(=O)(=O)N2CCC(NS(=O)(=O)c3cc(C#N)ccc3Oc3cc(C)cc(C)c3)CC2)cc1 [Compound 31, 5-cyano-2-(3,5-dimethylphenoxy)-N-(1-tosylpiperidin-4-yl)benzenesulfonamide] |
| > 5 | N#Cc1ccc(Oc2cc(Cl)cc(Cl)c2)c(S(=O)(=O)NC2CCN(S(=O)(=O)c3cccc(F)c3)CC2)c1 [Compound 32, 5-cyano-2-(3,5-dichlorophenoxy)-N-(1-(3-fluorophenylsulfonyl)piperidin-4-yl)benzenesulfonamide] |
| > 5 | N#Cc1ccc(Oc2cc(Cl)cc(Cl)c2)c(S(=O)(=O)NC2CCN(C(=O)c3ccc(C(F)(F)F)cc3)CC2)c1 [Compound 34] |
| > 5 | N#Cc1ccc(Oc2cc(Cl)cc(Cl)c2)c(S(=O)(=O)NC2CCN(C(=O)c3ccccc3)CC2)c1 [Compound 35] |
| > 5 | Cc1cc(C)cc(Oc2ccc(C#N)cc2S(=O)(=O)NC2CCN(S(C)(=O)=O)CC2)c1 [Compound 37] |
| > 5 | CC(C)C(=O)N1CCC(NS(=O)(=O)c2cc(C#N)ccc2Oc2cc(Cl)cc(Cl)c2)CC1 [Compound 39] |
| 0.05 to 0.5 | N#Cc1ccc(Oc2cc(Cl)cc(Cl)c2)c(S(=O)(=O)NC2CCN(C(=O)Nc3cccc(F)c3)CC2)c1 [Compound 44] |
| 0.5 to 5 | CC(C)(C)OC(=O)N1CCC(NS(=O)(=O)c2cc(C#N)ccc2Sc2cc(Cl)cc(Cl)c2)CC1 [Compound 45] |
| ≤ 0.05 | N#Cc1ccc(Oc2cc(Cl)cc(Cl)c2)c(S(=O)(=O)N2CCC(NC(=O)NCCN3CCSCC3)CC2)c1 [Compound 47, 1-(1-(5-cyano-2-(3,5-dichlorophenoxy)phenylsulfonyl)piperidin-4-yl)-3-(2-thiomorpholinoethyl)urea] |
| ≤ 0.05 | N#Cc1ccc(Oc2cc(Cl)cc(Cl)c2)c(S(=O)(=O)N2CCC(NC(=O)NCCN3CCCCC3)CC2)c1 [Compound 48, 1-(1-(5-cyano-2-(3,5-dichlorophenoxy)phenylsulfonyl)piperidin-4-yl)-3-(2-(piperidin-1-yl)ethyl)urea] |
| ≤ 0.05 | N#Cc1ccc(Oc2cc(Cl)cc(Cl)c2)c(S(=O)(=O)N2CCC(NC(=O)NCCN3CCNCC3)CC2)c1 [Compound 49, 1-(1-(5-cyano-2-(3,5-dichlorophenoxy)phenylsulfonyl)piperidin-4-yl)-3-(2-(piperazin-1-yl)ethyl)urea] |
| ≤ 0.05 | N#Cc1ccc(Oc2cc(Cl)cc(Cl)c2)c(S(=O)(=O)N2CCC(NC(=O)NCCN3CCC(F)CC3)CC2)c1 [Compound 50, 1-(1-(5-cyano-2-(3,5-dichlorophenoxy)phenylsulfonyl)piperidin-4-yl)-3-(2-(4-fluoropiperidin-1-yl)ethyl)urea] |
| ≤ 0.05 | CN1CCN(CCNC(=O)NC2CCN(S(=O)(=O)c3cc(C#N)ccc3Oc3cc(Cl)cc(Cl)c3)CC2)CC1 [Compound 51, 1-(1-(5-cyano-2-(3,5-dichlorophenoxy)phenylsulfonyl)piperidin-4-yl)-3-(2-(4-methylpiperazin-1-yl)ethyl)urea] |
| ≤ 0.05 | [2H]c1c([2H])c(Oc2cc(Cl)cc(Cl)c2)c(S(=O)(=O)N2CCC(NC(=O)NCC=C)CC2)c([2H])c1C#N [Compound 53, 1-allyl-3-(1-(5-cyano-3,4,6-trideutero-2-(3,5-dichlorophenoxy)phenylsulfonyl)piperidin-4-yl)urea] |
| ≤ 0.05 | [2H]c1c([2H])c(Oc2cc(Cl)cc(Cl)c2)c(S(=O)(=O)N2CCC(NC(=O)NCCN3C([2H])([2H])C([2H])([2H])OC([2H])([2H])C3([2H])[2H])CC2)c([2H])c1C#N [Compound 54, 1-(1-(5-cyano-3,4,6-trideutero-2-(3,5-dichlorophenoxy)phenylsulfonyl)piperidin-4-yl)-3-(2-(2,2,3,3,5,5,6,6-octadeutero-morpholino)ethyl)urea] |

biological target: T2, hERG channel (Homo sapiens, UniProt Q12809); assay: hERG Receptor Binding Assay (125I-BeKm-1, membranes from HEK-293 cells containing transfected hERG channels); conditions: 125I-BeKm-1 0.1 nM final, 1 hr at room temperature
T2 construct: purchased Perkin Elmer RBHERGM400UA; host or cells: HEK-293 cells transfected with hERG (membrane preparation)
Method: Medium throughput screening of compounds for interaction with the human Ether-a-go-go related gene (hERG) was performed by modification of equilibrium dissociation assays using 125I-labelled peptide BeKm-1. BeKm-1, a scorpion toxin from the Central Asian scorpion Buthus eupeus, selectively blocks the hERG channel. Angelo, K., et al., 2003, Pflugers Arch.-Eur. J. Physiol., 447: 55-63; Chiu, P J S, et al., J. Pharmacol. Sci., 2004, 95: 311-319. Isolated membrane preparations from HEK-293 cells containing transfected hERG channels (hERG K+ Channel Membrane Target Systems™; Cat #, RBHERGM400UA) (Perkin Elmer, Boston, Mass.) were suspended in assay buffer A at a final concentration of 1:150 v/v. Compounds for screening, and non-radiolabelled BeKm-1, as well as 125I-BeKm-1 radioligand (Perkin Elmer; Cat #, NEX-412; Specific Activity 2,200 Ci/mmol), were also reconstituted in Buffer A. Assay components were incubated in 96-well, round-bottom polypropylene plates in the following ratio:
25 μl compound at appropriate concentrations
25 μl radiolabelled BeKm-1 at 0.8 nM (final concentration of 0.1 nM)
150 μl membrane preparation
The assay was incubated with shaking for 1 hr at room temperature. Subsequently, the well contents were transferred to 96-well filtration plates (GF/C multiwell plates (MultiScreen™ HTS; Millipore, 290 Concord Road, Billerica, Mass. 01821 USA; Cat# MSFBN6B-XX pre-soaked in 0.3% polyethyleneimine; Acros Organics, NJ; Cat#178571000). Unbound radioactivity was removed and the membranes washed 4 times with ice-cold Buffer B, under vacuum. Plates were air-dried and bound radioactivity counted on a Packard Top-Count NXT™ microplate scintillation and luminescence counter (Packard Instrument Co., Downers Grove, Ill.). Equilibrium dissociation was analyzed and IC50 and/or Ki values were calculated using GraphPad Prism 4™ software (GraphPad Software, San Diego, Calif.).
Assay Buffer A: ([…] (MP Biomedicals, LLC; 29525 Fountain Parkway, Solon Ohio, 441389; Cat #1688449) in water, pH 7.2 with 1M Tris (Fisher Chemicals, Fair Lawn, N.J. 07410; Cat #, BP-1757-500); 100 μM KCl (Fisher Chemicals, Cat #, BP-366-500); 0.1% BSA (Sigma Aldrich, 3050 Spruce Street, St. Louis, Mo. 63103; Cat #, A3059). Assay Buffer B: 20 mM Tris HCl, pH 7.3; 150 mM NaCl (Fisher Chemicals; Cat #, S78449).
The hERG binding assay results are summarized in Table 2, wherein A represents no measured activity (i.e., a value greater than 100 μM), and B represents a value greater than 10 μM but less than 100 μM and C represents a value less than 10 μM.

T2 sequence (Q12809 whole entry): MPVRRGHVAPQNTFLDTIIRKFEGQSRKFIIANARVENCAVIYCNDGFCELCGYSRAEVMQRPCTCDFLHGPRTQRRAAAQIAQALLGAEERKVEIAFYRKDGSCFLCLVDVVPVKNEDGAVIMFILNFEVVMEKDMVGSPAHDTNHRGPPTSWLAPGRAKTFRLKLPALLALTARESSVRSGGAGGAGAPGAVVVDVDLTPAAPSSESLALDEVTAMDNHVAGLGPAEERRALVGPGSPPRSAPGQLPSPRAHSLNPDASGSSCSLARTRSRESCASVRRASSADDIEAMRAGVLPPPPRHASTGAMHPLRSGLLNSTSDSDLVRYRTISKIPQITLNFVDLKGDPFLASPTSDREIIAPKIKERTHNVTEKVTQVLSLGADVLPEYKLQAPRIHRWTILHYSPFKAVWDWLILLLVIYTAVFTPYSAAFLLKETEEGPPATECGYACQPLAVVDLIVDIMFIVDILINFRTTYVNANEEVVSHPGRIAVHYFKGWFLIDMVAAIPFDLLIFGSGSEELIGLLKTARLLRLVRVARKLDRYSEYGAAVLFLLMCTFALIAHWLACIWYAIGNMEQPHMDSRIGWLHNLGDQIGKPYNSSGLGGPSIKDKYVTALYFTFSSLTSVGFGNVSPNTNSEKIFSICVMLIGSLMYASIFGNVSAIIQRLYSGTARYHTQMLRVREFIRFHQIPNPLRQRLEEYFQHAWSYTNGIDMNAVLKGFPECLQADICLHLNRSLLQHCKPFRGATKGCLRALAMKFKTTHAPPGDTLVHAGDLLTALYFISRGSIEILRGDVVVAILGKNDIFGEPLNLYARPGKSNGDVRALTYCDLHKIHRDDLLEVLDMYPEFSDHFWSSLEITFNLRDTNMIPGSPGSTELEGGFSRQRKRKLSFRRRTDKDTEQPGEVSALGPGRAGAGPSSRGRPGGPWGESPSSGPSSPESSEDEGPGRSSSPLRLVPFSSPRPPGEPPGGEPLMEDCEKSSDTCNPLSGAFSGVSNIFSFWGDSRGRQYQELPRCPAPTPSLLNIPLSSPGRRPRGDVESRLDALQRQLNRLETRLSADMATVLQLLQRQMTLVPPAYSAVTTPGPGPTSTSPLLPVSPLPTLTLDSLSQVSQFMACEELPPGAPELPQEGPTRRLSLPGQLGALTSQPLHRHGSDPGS

| Structure (SMILES) | Ki [µM] |
| --- | --- |
| CC(=O)NC1CCN(S(=O)(=O)c2cc(C#N)ccc2Oc2cc(Cl)cc(Cl)c2)CC1 [Compound 5, N-(1-(5-cyano-2-(3,5-dichlorophenoxy)phenylsulfonyl)piperidin-4-yl)acetamide] | > 100 |
| N#Cc1ccc(Oc2cc(Cl)cc(Cl)c2)c(S(=O)(=O)N2CCC(NC(=O)CCCCl)CC2)c1 [Compound 8, 4-chloro-N-(1-(5-cyano-2-(3,5-dichlorophenoxy)phenylsulfonyl)piperidin-4-yl)butanamide] | > 100 |
| Cc1ccc(C(=O)NC2CCN(S(=O)(=O)c3cc(C#N)ccc3Oc3cc(Cl)cc(Cl)c3)CC2)cc1 [Compound 10, N-(1-(5-cyano-2-(3,5-dichlorophenoxy)phenylsulfonyl)piperidin-4-yl)-4-methylbenzamide] | > 100 |
| N#Cc1ccc(Oc2cc(Cl)cc(Cl)c2)c(S(=O)(=O)N2CCC(NC(=O)c3cccc(F)c3)CC2)c1 [Compound 11, N-(1-(5-cyano-2-(3,5-dichlorophenoxy)phenylsulfonyl)piperidin-4-yl)-3-fluorobenzamide] | > 100 |
| CC(C)NC(=O)NC1CCN(S(=O)(=O)c2cc(C#N)ccc2Oc2cc(Cl)cc(Cl)c2)CC1 [Compound 12, 1-(1-(5-cyano-2-(3,5-dichlorophenoxy)phenylsulfonyl)piperidin-4-yl)-3-isopropylurea] | > 100 |
| C=CCNC(=O)NC1CCN(S(=O)(=O)c2cc(C#N)ccc2Oc2cc(Cl)cc(Cl)c2)CC1 [Compound 13, 1-allyl-3-(1-(5-cyano-2-(3,5-dichlorophenoxy)phenylsulfonyl)piperidin-4-yl)urea] | > 100 |
| N#Cc1ccc(Oc2cc(Cl)cc(Cl)c2)c(S(=O)(=O)N2CCC(NC(=O)NCc3ccco3)CC2)c1 [Compound 16, 1-(1-(5-cyano-2-(3,5-dichlorophenoxy)phenylsulfonyl)piperidin-4-yl)-3-(furan-2-ylmethyl)urea] | > 100 |
| CC(C)NC(=S)NC1CCN(S(=O)(=O)c2cc(C#N)ccc2Oc2cc(Cl)cc(Cl)c2)CC1 [Compound 17, 1-(1-(5-cyano-2-(3,5-dichlorophenoxy)phenylsulfonyl)piperidin-4-yl)-3-isopropylthiourea] | > 100 |
| CSCCCNC(=S)NC1CCN(S(=O)(=O)c2cc(C#N)ccc2Oc2cc(Cl)cc(Cl)c2)CC1 [Compound 18, 1-(1-(5-cyano-2-(3,5-dichlorophenoxy)phenylsulfonyl)piperidin-4-yl)-3-(3-(methylthio)propyl)thiourea] | > 100 |
